Results as given in ChEMBL document CHEMBL1212831, “Discovery of N-[(2S)-5-(6-fluoro-3-pyridinyl)-2,3-dihydro-1H-inden-2-yl]-2-propanesulfonamide, a novel clinical AMPA receptor positive modulator” (J Med Chem, 2010).
The source made the active and inactive calls. The calls are words filed in the database; no cut-off is given here.

Tests used:
Glutamate receptor 2 = Glutamate receptor 2 (Homo sapiens, UniProt P42262)
Description: Activation of human GluR2 flip isoform expressed in HEK293 cells assessed as increase of glutamate-induced intracellular calcium level by FLIPR assay

[1] = Plasma protein binding in rat at 1 ug/ml after 6 hrs by equilibrium dialysis method; format: ADME, cell-free; conditions: read-out: PPB (converted)
[2] = AUC (0 to t) in rat; format: ADME, organism-based; conditions: plasma
in vivo = conditions: rat, brain/blood
Description: Ratio of brain AUC (0 to t) to blood AUC (0 to t) in rat

MDR1 (human) = test: in vitro; conditions: dog, MDCK-MDR1
Description: Efflux ratio of permeability from basolateral to apical over apical to basolateral side of MDCK2 cells over expressing human MDR1

Cytochrome P450 1A2 = molecular target: T1, Cytochrome P450 1A2 (Homo sapiens, UniProt P05177)
T1 sequence (P05177 whole entry): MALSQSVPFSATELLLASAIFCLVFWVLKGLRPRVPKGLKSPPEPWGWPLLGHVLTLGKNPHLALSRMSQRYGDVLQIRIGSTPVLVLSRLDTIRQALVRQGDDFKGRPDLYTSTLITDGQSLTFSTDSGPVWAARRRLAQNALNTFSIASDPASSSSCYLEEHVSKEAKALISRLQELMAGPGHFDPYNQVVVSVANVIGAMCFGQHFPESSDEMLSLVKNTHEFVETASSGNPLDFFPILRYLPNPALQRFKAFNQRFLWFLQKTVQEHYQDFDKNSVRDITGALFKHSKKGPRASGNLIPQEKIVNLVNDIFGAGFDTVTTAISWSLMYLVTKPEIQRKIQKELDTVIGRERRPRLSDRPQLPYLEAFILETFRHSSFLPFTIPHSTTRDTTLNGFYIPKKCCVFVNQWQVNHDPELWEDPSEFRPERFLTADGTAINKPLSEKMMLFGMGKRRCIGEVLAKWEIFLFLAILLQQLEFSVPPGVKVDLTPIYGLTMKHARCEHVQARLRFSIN
Description: Inhibition of human CYP1A2 after 10 mins

Cytochrome P450 2C9 = Cytochrome P450 2C9 (Homo sapiens, UniProt P11712)
Sequence of Cytochrome P450 2C9 (P11712 whole entry): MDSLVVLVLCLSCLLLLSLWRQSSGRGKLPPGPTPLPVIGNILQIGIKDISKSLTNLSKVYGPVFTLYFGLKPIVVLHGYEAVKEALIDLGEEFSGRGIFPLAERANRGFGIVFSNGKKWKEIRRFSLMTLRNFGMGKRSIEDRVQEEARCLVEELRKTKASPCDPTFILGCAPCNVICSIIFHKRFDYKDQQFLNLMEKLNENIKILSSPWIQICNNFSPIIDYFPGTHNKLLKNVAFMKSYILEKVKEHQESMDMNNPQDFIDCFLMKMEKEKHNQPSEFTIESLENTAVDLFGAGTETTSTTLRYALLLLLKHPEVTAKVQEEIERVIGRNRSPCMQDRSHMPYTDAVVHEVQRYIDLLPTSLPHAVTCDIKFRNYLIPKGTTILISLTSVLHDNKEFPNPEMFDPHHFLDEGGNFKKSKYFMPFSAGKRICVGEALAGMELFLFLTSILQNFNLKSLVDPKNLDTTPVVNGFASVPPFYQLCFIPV
Description: Inhibition of human CYP2C9 after 10 mins

Cytochrome P450 2C19 = Cytochrome P450 2C19 (Homo sapiens, UniProt P33261)
Sequence of Cytochrome P450 2C19 (P33261 whole entry): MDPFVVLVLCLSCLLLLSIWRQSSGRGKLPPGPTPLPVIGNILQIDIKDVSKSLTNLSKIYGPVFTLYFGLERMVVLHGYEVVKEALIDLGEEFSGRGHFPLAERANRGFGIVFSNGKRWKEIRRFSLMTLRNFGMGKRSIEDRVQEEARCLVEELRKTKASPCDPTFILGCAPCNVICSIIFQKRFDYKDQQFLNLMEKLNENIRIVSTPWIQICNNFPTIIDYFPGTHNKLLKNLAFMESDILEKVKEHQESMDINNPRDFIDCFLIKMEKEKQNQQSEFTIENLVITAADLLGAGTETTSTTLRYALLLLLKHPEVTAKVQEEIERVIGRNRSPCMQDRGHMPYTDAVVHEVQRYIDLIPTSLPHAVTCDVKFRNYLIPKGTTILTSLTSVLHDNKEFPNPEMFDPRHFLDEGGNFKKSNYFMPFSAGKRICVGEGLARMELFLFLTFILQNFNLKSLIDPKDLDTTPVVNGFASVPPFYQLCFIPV
Description: Inhibition of human CYP2C19 after 10 mins

Cytochrome P450 2D6 = Cytochrome P450 2D6 (Homo sapiens, UniProt P10635)
Sequence of Cytochrome P450 2D6 (P10635 whole entry): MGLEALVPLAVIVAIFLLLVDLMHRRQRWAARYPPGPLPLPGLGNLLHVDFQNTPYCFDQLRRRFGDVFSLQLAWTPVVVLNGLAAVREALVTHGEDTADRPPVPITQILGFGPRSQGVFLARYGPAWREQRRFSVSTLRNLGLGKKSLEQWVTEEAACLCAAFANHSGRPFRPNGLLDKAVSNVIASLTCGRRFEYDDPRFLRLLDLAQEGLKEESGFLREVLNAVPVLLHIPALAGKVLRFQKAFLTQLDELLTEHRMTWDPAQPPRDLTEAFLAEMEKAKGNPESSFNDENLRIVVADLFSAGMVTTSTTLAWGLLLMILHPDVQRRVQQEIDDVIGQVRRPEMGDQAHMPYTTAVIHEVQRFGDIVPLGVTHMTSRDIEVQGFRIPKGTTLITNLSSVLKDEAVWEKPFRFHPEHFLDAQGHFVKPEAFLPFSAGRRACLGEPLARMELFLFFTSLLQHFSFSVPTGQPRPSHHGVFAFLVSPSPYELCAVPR
Description: Inhibition of human CYP2D6 after 10 mins

Cytochrome P450 3A4 = Cytochrome P450 3A4 (Homo sapiens, UniProt P08684)
Sequence of Cytochrome P450 3A4 (P08684 whole entry): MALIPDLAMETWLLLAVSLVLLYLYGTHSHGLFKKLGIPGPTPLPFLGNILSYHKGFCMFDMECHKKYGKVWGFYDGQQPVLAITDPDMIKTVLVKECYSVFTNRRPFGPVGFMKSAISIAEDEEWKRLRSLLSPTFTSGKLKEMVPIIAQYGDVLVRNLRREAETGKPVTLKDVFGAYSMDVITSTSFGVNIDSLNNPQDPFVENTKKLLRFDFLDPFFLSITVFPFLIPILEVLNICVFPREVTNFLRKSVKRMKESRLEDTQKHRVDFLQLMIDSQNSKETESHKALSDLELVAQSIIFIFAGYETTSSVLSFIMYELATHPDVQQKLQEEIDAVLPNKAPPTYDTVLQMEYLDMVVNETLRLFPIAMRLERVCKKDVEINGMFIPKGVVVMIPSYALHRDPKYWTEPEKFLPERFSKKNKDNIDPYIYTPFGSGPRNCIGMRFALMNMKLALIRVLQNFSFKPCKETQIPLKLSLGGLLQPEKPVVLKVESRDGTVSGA
Description: Inhibition of human CYP3A4 after 10 mins

Liver microsomes [3] = system: Liver microsomes
Liver microsomes [4] = system: Liver microsomes; remark: listed apart in the source
Brain [5] = test: Brain tissue binding in rat at 1 ug/ml after 6 hrs by equilibrium dialysis method; format: ADME, tissue-based
[6] = Blood clearance in Sprague-Dawley rat at 1 mg/kg, iv and 3 mg/kg, po; format: ADME, organism-based
[7] = Half life in Sprague-Dawley rat at 1 mg/kg, iv and 3 mg/kg, po; format: ADME, organism-based; conditions: in vivo
[8] = Volume of distribution at steady state in Sprague-Dawley rat at 1 mg/kg, iv and 3 mg/kg, po; format: ADME, organism-based; conditions: in vivo, read-out: Vdss
[9] = Cmax in Sprague-Dawley rat at 3 mg/kg, po; format: ADME, organism-based; parameters: dose 3 mg/kg, route oral; conditions: in vivo
[10] = Tmax in Sprague-Dawley rat at 3 mg/kg, po; format: ADME, organism-based; parameters: dose 3 mg/kg, route oral; conditions: in vivo
[11] = Oral bioavailability in Sprague-Dawley rat at 3 mg/kg; format: ADME, organism-based; conditions: in vivo
Rattus norvegicus [12] = test: Cognitive enhancing effect in po dosed Lister Hooded rat assessed as reversal of 24 hrs delay-induced retention deficit behavior by novel object recognition assay; format: functional; conditions: read-out: MED
Blood = test: Drug level in po dosed Lister Hooded rat blood; format: ADME, organism-based; conditions: in vivo
Brain [13] = test: Drug level in po dosed Lister Hooded rat brain assessed per gram of tissue; format: ADME, organism-based; conditions: in vivo
Rattus norvegicus [14] = test: Antiamnesic activity in po dosed assessed as inhibition of Scopolamine-induced amnesic deficit administered 3 hrs before Scopolamine challenge by step-down passive avoidance test; format: functional, organism-based; conditions: Wistar
Rattus norvegicus [15] = test: Antiamnesic activity in po dosed assessed as inhibition of amnesic deficit by step-down passive avoidance test; format: functional, organism-based; conditions: Wistar

Sequence of Glutamate receptor 2 (P42262 whole entry): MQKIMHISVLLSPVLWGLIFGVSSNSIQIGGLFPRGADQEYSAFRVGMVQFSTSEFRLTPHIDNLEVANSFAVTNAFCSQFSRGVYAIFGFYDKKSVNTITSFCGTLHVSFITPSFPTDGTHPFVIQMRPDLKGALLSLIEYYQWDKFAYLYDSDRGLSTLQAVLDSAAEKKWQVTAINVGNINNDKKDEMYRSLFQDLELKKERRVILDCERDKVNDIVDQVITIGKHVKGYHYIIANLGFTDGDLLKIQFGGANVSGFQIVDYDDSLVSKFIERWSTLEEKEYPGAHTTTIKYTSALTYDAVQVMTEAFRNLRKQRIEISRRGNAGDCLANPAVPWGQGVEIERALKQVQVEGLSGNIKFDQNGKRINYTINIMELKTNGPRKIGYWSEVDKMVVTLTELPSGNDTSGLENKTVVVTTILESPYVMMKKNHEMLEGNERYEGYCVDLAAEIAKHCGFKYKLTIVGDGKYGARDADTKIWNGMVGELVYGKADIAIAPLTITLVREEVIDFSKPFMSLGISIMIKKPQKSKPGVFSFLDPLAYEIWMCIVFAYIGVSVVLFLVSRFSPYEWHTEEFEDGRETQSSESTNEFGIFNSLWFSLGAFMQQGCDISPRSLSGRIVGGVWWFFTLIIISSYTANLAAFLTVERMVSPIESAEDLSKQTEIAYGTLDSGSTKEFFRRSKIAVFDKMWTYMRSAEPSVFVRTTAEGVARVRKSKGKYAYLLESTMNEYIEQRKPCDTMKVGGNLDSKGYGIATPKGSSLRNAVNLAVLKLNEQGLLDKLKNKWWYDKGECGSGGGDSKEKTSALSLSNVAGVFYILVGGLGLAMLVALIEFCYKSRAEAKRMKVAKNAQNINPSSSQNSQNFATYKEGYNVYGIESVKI
Description for physchem: Dissociation constant, pKa of the compound

| Compound | EC50 (Glutamate receptor 2) [µM] | IC50 (Cytochrome P450 1A2) [µM] | IC50 (Cytochrome P450 2C9) [µM] | IC50 (Cytochrome P450 2C19) [µM] | IC50 (Cytochrome P450 2D6) [µM] | IC50 (Cytochrome P450 3A4) [µM] | IC50 (Liver microsomes [3]) [µM] | IC50 (Liver microsomes [4]) [µM] | pKa (physchem) | other results |
| --- | --- | --- | --- | --- | --- | --- | --- | --- | --- | --- |
| CC(=O)c1cccc(-c2ccc3c(c2)CC(NS(=O)(=O)C(C)C)C3)c1 (stereo unspecified) | > 50.1 | – | – | – | – | – | – | – | – | – |
| CC(C)S(=O)(=O)NC[C@H](C)c1ccc(NC(=O)c2cc(F)cc(F)c2)cc1 | 0.398 | – | – | – | – | – | – | – | – | – |
| CC(C)S(=O)(=O)NC1Cc2ccc(-c3cccc(N(C)S(C)(=O)=O)c3)cc2C1 (stereo unspecified) | 1.26 | – | – | – | – | – | – | – | – | fraction unbound at 6 h, 1 ug/ml [1]: 0.036; AUC(0-t) [2]: 161 ng·h/mL; Kp (in vivo): 0.4; efflux ratio (MDR1 (human)): 3.2 |
| CC(C)S(=O)(=O)NC1Cc2ccc(-c3ccc(Cl)cn3)cc2C1 (stereo unspecified) | 7.94 | > 10 | > 10 | > 10 | > 10 | > 10 | < 0.8 | < 0.5 | – | – |
| CC(C)S(=O)(=O)NC1Cc2ccc(-c3cccc(CN4CCCC4=O)c3)cc2C1 (stereo unspecified) | 12.6 | – | – | – | – | – | – | – | – | fraction unbound at 6 h, 1 ug/ml [1]: 0.024; AUC(0-t) [2]: 36 ng·h/mL; Kp (in vivo): 0.4 |
| CC(C)S(=O)(=O)NC1Cc2ccc(-c3cccnc3)cc2C1 (stereo unspecified) | 15.8 | 0.6 | > 10 | > 10 | > 10 | > 10 | 2.1 | < 0.5 | 5.1 | – |
| CC(C)S(=O)(=O)NC1Cc2ccc(-c3cccc(C#N)c3)cc2C1 (stereo unspecified) | > 50.1 | – | – | – | – | – | – | – | – | – |
| CC(C)S(=O)(=O)NC1Cc2ccc(-c3cccc(S(=O)(=O)N(C)C)c3)cc2C1 (stereo unspecified) | 7.94 | – | – | – | – | – | – | – | – | – |
| CC(C)S(=O)(=O)NC1Cc2ccc(-c3cccnc3F)cc2C1 (stereo unspecified) | 15.8 | > 10 | > 10 | 9 | > 10 | > 10 | 2.5 | 2.1 | – | Kp (in vivo): 1.5 |
| Cc1cccnc1-c1ccc2c(c1)CC(NS(=O)(=O)C(C)C)C2 (stereo unspecified) | 20 | > 10 | > 10 | > 10 | > 10 | > 10 | 14 | 1.3 | 4.9 | – |
| Cc1ccc(-c2ccc3c(c2)CC(NS(=O)(=O)C(C)C)C3)cn1 (stereo unspecified) | 3.16 | > 10 | > 10 | > 10 | > 10 | > 10 | 2 | 0.7 | 5.7 | Kp (in vivo): 1.4 |
| CC(C)S(=O)(=O)NC1Cc2ccc(-c3cccc(CN4CCCS4(=O)=O)c3)cc2C1 (stereo unspecified) | 0.398 | – | – | – | – | – | – | – | – | fraction unbound at 6 h, 1 ug/ml [1]: 0.033 |
| Cc1ccc(-c2ccc3c(c2)C[C@@H](NS(=O)(=O)C(C)C)C3)cn1 | 2 | > 10 | > 10 | > 10 | > 10 | > 10 | 3.5 | < 0.6 | 5.8 | Activity (Brain [5]): 96.7%; fraction unbound at 6 h, 1 ug/ml [1]: 0.078; clearance [6]: 55 mL/min/kg; half-life [7]: 36 min; Vd [8]: 2.4 L/kg; Cmax [9]: 116 ng/mL; Tmax [10]: 60 min; bioavailability [11]: 25%; Kp (in vivo): 1.3; efflux ratio (MDR1 (human)): 0.9 |
| Cc1ccc(-c2ccc3c(c2)CC(NS(=O)(=O)C(C)C)C3)nc1 (stereo unspecified) | 3.16 | > 10 | > 10 | > 10 | > 10 | > 10 | 7.3 | 0.8 | 4.9 | – |
| CC(C)S(=O)(=O)NC1Cc2ccc(-c3ccc(F)cn3)cc2C1 (stereo unspecified) | 6.31 | > 10 | > 10 | > 10 | > 10 | > 10 | 0.6 | 0.5 | 2.7 | – |
| CC(C)S(=O)(=O)NC1Cc2ccc(-c3cccc(NS(C)(=O)=O)c3)cc2C1 (stereo unspecified) | 0.794 | – | – | – | – | – | – | – | – | fraction unbound at 6 h, 1 ug/ml [1]: 0.041; AUC(0-t) [2]: 1130 ng·h/mL; Kp (in vivo): 0.1; efflux ratio (MDR1 (human)): 5.8 |
| CC(C)S(=O)(=O)N[C@@H]1Cc2ccc(-c3ccc(F)nc3)cc2C1 | – | – | – | – | > 10 | – | – | – | – | – |
| Cc1ccncc1-c1ccc2c(c1)CC(NS(=O)(=O)C(C)C)C2 (stereo unspecified) | 20 | > 10 | > 10 | > 10 | > 10 | > 9 | 4.5 | 1.4 | 5.8 | – |
| CCS(=O)(=O)Nc1cccc(-c2ccc3c(c2)CC(NS(=O)(=O)C(C)C)C3)c1 (stereo unspecified) | 2.51 | – | – | – | – | – | – | – | – | – |
| CC(C)S(=O)(=O)N[C@H]1Cc2ccc(-c3ccc(F)cn3)cc2C1 | 2 | > 10 | > 10 | > 10 | > 10 | > 10 | 1.6 | < 0.5 | 2.7 | Activity (Brain [5]): 97.9%; fraction unbound at 6 h, 1 ug/ml [1]: 0.097; minimal effective dose (Rattus norvegicus [12]): 0.3 mg/kg; Drug uptake (Blood): 37 ng/mL; Drug uptake (Brain [13]): 70 ng/g; Activity (Rattus norvegicus [14]): Dose-dependent effect; inhibition (Rattus norvegicus [15]): inactive; clearance [6]: 24 mL/min/kg; half-life [7]: 60 min; Vd [8]: 2.2 L/kg; Cmax [9]: 436 ng/mL; Tmax [10]: 30 min; bioavailability [11]: 72%; Kp (in vivo): 1.4; efflux ratio (MDR1 (human)): 1.1 |
| CC(C)S(=O)(=O)NC1Cc2ccc(-c3ccc(F)nc3)cc2C1 (stereo unspecified) | – | > 10 | > 10 | > 10 | > 10 | > 10 | 1.1 | 1.7 | – | – |
| CC(=O)Nc1cccc(-c2ccc3c(c2)CC(NS(=O)(=O)C(C)C)C3)c1 (stereo unspecified) | 20 | – | – | – | – | – | – | – | – | fraction unbound at 6 h, 1 ug/ml [1]: 0.051 |
| CC(C)S(=O)(=O)NC1Cc2ccc(-c3cncc(C#N)c3)cc2C1 (stereo unspecified) | 63.1 | > 10 | > 10 | > 10 | > 10 | > 10 | < 0.5 | 0.7 | – | – |
| CC(=O)Cc1cccc(-c2ccc3c(c2)CC(NS(=O)(=O)C(C)C)C3)c1 (stereo unspecified) | 6.31 | – | – | – | – | – | – | – | – | – |
| CC(C)C(=O)Nc1cccc(-c2ccc3c(c2)CC(NS(=O)(=O)C(C)C)C3)c1 (stereo unspecified) | > 50.1 | – | – | – | – | – | – | – | – | – |
